The record followed here is ChEMBL document CHEMBL1201862, “PubChem BioAssay data set” (2004).

What all share (assay type): functional
In experiment [1] the target is Small ubiquitin-related modifier 1 (Homo sapiens, UniProt P63165). The experiment can be described thus: SUMO1 protein-protein binding blockers, potency – biochemical, FRET, dose response (AID 624383). The note with it: read-out: IC50_Mean.
Another experiment has as its system INS1. The experiment can be described thus: INS-1E survival protection against cytokine death – cell-based, luminescence, retest, dose response (AID 449756).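 Note: cell death triggered by IL-1 beta plus TNF-alpha plus IFN-gamma mixture; protective hits raise ATP signal compared with cytokine alone wells.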 Conditions: Rattus norvegicus.
Experiment [2] concerns the target T1, Ubiquitin-conjugating enzyme E2 N (Homo sapiens, UniProt P61088).
T1 sequence (P61088 whole entry): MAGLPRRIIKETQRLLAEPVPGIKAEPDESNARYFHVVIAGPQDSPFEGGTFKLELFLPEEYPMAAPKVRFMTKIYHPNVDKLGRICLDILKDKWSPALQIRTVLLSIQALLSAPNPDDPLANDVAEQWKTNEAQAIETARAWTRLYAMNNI

Experiment [3] addresses T1, Ubiquitin-conjugating enzyme E2 N. This is another data set of the same source.
The test system of the next experiment is BJ. The experiment can be described thus: growth inhibition of engineered Ras-driven BJ cells – cell-based, alamar blue fluorescence, cherrypicked samples, dose response (AID 2631).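 Note: confirmatory dose-response assay in RAS-dependent BJ fibroblasts engineered with TERT, LT and ST, with cytotoxicity read by fluorescence.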 Conditions: Homo sapiens.
Experiment [4] is described as follows: viability loss in HeLa cells – cytotoxicity control for MgcRacGAP inhibitor project, dose response (AID 624300).
The target in experiment [5] is Fibroblast growth factor receptor 1 (Homo sapiens, UniProt P11362).
The target of experiment [6] is Tyrosine-protein kinase Lyn (Homo sapiens, UniProt P07948).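 Note: lyn as one member of a kinase panel.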
Tyrosine-protein kinase Lyn, sequence (P07948 whole entry): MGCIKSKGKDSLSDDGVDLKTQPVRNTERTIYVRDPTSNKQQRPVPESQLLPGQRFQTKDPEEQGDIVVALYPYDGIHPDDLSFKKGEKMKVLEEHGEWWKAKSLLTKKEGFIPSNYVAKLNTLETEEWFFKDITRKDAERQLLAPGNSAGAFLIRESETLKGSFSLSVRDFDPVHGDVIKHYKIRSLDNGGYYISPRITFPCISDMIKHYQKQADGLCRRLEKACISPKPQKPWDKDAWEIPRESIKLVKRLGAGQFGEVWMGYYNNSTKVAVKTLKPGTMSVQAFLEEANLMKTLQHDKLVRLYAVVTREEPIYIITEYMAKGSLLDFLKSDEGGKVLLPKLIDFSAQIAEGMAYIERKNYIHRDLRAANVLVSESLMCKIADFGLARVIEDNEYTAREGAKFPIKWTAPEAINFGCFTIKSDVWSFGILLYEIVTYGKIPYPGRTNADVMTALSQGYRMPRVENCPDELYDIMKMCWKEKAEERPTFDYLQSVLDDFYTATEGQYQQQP
Experiment [7] deals with High affinity nerve growth factor receptor (Homo sapiens, UniProt P04629).
High affinity nerve growth factor receptor, sequence (P04629 whole entry): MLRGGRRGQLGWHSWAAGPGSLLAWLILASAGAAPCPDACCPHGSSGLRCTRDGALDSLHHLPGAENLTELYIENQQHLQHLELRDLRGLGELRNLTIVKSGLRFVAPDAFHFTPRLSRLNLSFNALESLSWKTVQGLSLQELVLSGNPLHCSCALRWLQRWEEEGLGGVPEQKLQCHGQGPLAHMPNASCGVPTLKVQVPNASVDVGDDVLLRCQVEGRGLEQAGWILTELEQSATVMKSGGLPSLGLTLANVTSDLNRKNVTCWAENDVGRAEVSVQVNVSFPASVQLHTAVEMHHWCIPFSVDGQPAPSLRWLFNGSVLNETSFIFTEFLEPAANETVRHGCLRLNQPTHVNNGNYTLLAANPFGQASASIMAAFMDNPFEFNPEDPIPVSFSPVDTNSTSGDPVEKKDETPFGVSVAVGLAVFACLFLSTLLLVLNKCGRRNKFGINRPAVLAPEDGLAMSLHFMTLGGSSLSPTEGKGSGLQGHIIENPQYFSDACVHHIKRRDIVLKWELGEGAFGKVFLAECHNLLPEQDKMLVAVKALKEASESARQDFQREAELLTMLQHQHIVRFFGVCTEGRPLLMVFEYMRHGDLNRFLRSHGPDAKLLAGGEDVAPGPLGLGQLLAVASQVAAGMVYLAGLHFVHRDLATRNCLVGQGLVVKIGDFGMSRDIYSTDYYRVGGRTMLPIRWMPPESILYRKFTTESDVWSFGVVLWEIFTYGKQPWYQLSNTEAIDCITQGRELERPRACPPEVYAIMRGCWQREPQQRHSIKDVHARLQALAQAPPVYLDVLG
Experiment [8] addresses Mitogen-activated protein kinase 13 (Homo sapiens, UniProt O15264).
Experiment [9] has as its target Protein kinase C delta type (Homo sapiens, UniProt Q05655).
Experiment [10] deals with Serine/threonine-protein kinase Nek2 (Homo sapiens, UniProt P51955).
Serine/threonine-protein kinase Nek2, sequence (P51955 whole entry): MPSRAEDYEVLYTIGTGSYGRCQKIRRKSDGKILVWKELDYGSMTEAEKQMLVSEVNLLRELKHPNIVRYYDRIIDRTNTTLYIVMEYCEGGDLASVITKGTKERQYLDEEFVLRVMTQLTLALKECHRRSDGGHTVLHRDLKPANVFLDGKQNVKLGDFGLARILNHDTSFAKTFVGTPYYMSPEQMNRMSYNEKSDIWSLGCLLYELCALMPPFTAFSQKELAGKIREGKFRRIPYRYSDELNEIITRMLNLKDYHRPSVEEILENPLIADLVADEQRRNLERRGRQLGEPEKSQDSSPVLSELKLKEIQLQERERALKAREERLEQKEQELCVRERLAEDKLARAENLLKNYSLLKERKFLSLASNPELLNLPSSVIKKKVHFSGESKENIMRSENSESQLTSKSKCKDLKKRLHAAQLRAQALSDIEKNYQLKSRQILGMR
Experiment [11] deals with Casein kinase II subunit alpha (Homo sapiens, UniProt P68400).
Experiment [12] addresses Cyclin-dependent kinase 2 (Homo sapiens, UniProt P24941).
The target of experiment [13] is MAP kinase-activated protein kinase 2 (Homo sapiens, UniProt P49137).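 Note: measured as one member of a kinome-wide kinase panel.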
MAP kinase-activated protein kinase 2, sequence (P49137 whole entry): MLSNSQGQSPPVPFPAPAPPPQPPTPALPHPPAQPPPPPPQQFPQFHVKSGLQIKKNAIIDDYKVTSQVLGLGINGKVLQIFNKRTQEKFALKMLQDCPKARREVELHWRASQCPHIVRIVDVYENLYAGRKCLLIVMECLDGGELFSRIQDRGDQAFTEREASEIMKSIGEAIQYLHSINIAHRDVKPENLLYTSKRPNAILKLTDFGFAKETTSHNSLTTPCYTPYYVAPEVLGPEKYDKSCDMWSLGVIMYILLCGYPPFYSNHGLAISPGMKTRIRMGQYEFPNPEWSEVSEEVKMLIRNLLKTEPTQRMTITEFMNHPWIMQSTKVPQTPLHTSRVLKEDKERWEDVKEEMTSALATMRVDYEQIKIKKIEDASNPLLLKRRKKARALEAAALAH
Experiment [14] concerns the target MAP/microtubule affinity-regulating kinase 3 (Homo sapiens, UniProt P27448).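 Note: MARK3 affinity measured as one member of a kinome panel.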
For experiment [15], the target named is Rho-associated protein kinase 1 (Homo sapiens, UniProt Q13464).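 Note: measured within a broad kinome-wide panel profiling many kinases.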
For experiment [16], the target named is Serine/threonine-protein kinase PAK 1 (Homo sapiens, UniProt Q13153).
Experiment [17] has as its target Receptor tyrosine-protein kinase erbB-4 (Homo sapiens, UniProt Q15303).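 Note: ERBB4 member of a kinome-wide kinase profiling panel.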
In experiment [18] the target is RAC-gamma serine/threonine-protein kinase (Homo sapiens, UniProt Q9Y243).
The target of experiment [19] is Ribosomal protein S6 kinase beta-1 (Homo sapiens, UniProt P23443).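 Note: measured as one member of a kinome-wide profiling panel.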
The target in experiment [20] is Mitogen-activated protein kinase 1 (Homo sapiens, UniProt P28482).
Mitogen-activated protein kinase 1, sequence (P28482 whole entry, canonical isoform): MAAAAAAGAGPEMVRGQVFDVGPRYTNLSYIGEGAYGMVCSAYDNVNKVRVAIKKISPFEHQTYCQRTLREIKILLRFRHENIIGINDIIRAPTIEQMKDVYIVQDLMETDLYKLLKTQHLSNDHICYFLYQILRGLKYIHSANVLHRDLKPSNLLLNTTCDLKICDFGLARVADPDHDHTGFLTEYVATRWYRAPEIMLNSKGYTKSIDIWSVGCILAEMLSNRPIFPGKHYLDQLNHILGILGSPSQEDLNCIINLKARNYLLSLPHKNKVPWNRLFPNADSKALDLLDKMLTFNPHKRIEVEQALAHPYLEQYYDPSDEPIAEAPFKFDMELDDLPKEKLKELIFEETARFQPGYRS
The target in experiment [21] is Casein kinase I isoform delta (Homo sapiens, UniProt P48730).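 Note: measured as one member (CSNK1D) of a kinome panel.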
Casein kinase I isoform delta, sequence (P48730 whole entry, canonical isoform): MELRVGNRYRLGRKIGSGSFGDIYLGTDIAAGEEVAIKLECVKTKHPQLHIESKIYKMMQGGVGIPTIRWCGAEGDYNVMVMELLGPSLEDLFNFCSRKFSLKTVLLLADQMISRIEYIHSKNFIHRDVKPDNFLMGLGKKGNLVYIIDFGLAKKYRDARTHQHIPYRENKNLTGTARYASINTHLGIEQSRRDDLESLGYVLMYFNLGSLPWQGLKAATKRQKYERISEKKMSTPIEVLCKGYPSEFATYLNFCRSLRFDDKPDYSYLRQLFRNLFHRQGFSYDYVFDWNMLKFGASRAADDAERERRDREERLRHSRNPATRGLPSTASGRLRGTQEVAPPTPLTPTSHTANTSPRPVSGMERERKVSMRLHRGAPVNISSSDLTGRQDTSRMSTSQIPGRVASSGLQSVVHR
In experiment [22] the target is Tyrosine-protein kinase JAK2 (Homo sapiens, UniProt O60674).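 Note: JAK2 tested as one member of a kinase panel.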
The target of experiment [23] is Cyclin-dependent kinase 5 (Homo sapiens, UniProt Q00535).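 Note: CDK5 measured as one member of a kinase profiling panel.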
The target in experiment [24] is Inhibitor of nuclear factor kappa-B kinase subunit alpha (Homo sapiens, UniProt O15111).
In experiment [25] the target is Protein kinase C gamma type (Homo sapiens, UniProt P05129).
The target in experiment [26] is Serine/threonine-protein kinase pim-1 (Homo sapiens, UniProt P11309).
Experiment [27] addresses Hepatocyte growth factor receptor (Homo sapiens, UniProt P08581).
For experiment [28], the target named is 5'-AMP-activated protein kinase catalytic subunit alpha-1 (Homo sapiens, UniProt Q13131).
5'-AMP-activated protein kinase catalytic subunit alpha-1, sequence (Q13131 whole entry): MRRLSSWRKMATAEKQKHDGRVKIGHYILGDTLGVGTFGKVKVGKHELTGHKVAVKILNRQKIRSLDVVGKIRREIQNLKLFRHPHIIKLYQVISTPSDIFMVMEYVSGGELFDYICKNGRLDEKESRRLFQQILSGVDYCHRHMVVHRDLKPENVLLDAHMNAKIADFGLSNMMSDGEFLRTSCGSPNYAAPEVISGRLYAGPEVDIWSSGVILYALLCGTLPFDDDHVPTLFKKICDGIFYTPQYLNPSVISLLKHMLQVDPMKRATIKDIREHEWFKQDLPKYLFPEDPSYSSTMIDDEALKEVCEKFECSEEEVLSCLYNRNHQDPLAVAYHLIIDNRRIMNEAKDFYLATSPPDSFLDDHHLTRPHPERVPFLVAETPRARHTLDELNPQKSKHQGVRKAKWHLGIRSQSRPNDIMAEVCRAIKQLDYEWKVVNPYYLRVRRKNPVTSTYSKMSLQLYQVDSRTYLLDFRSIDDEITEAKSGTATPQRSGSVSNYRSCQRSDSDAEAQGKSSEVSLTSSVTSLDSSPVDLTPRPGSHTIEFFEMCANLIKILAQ
Experiment [29] concerns the target Serine/threonine-protein kinase PLK3 (Homo sapiens, UniProt Q9H4B4).
The target of experiment [30] is Mitogen-activated protein kinase 9 (Homo sapiens, UniProt P45984).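 Note: value from a kinome panel profiling assay, MAPK9 panel entry.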
Mitogen-activated protein kinase 9, sequence (P45984 whole entry): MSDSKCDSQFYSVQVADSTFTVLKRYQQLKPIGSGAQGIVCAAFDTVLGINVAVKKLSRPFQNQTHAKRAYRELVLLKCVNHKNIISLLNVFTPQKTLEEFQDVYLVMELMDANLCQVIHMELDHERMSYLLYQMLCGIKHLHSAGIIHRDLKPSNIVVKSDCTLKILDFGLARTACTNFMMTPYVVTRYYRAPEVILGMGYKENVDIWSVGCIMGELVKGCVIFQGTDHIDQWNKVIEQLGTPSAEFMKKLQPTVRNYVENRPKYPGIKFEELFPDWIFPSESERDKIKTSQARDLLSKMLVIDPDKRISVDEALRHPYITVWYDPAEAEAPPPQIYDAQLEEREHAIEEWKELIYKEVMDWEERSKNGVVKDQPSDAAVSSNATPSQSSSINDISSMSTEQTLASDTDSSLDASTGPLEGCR
In experiment [31] the target is Interleukin-1 receptor-associated kinase 4 (Homo sapiens, UniProt Q9NWZ3).
Experiment [32] can be described thus: viability of PTEN-deleted HCT116 cells – cell-based, HCT116 PTEN knockout, dose response (AID 1047).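 Note: HCT116 colon tumor cells with PTEN knocked out; cells exposed to compound for 60 hours before readout; potency for loss of cell viability measured by luminescence.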
Experiment [33] has as its target RNA-editing ligase 1, mitochondrial (Trypanosoma brucei brucei, UniProt P86926). The experiment can be described thus: inhibition of trypanosome RNA editing ligase – biochemical, fluorescence, Trypanosoma brucei, dose response (AID 1117295).
Experiment [34] in a line: viability of HCT116 lacking mutant beta-catenin – cell-based, human colon tumor, dose response (AID 1045).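 Note: HCT116 colon tumor cells with beta catenin knocked out; cells exposed to compound for 60 hours.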

Molecules are shown by their SMILES. The source made the active and inactive calls.

Mitogen-activated protein kinase 13, sequence (O15264 whole entry): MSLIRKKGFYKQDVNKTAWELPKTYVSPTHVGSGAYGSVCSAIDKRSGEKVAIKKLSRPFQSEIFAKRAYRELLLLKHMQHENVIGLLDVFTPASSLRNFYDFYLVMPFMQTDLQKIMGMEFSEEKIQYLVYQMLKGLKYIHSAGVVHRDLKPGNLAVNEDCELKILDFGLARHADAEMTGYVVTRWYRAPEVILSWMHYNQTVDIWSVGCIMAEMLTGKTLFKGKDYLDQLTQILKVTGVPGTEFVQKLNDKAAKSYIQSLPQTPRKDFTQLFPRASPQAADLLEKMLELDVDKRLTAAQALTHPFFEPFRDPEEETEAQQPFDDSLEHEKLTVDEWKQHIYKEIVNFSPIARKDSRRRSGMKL
Small ubiquitin-related modifier 1, sequence (P63165 whole entry): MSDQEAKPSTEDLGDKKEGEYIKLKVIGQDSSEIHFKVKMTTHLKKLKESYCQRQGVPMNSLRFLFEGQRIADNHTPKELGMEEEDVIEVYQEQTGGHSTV
RNA-editing ligase 1, mitochondrial, sequence (P86926 whole entry): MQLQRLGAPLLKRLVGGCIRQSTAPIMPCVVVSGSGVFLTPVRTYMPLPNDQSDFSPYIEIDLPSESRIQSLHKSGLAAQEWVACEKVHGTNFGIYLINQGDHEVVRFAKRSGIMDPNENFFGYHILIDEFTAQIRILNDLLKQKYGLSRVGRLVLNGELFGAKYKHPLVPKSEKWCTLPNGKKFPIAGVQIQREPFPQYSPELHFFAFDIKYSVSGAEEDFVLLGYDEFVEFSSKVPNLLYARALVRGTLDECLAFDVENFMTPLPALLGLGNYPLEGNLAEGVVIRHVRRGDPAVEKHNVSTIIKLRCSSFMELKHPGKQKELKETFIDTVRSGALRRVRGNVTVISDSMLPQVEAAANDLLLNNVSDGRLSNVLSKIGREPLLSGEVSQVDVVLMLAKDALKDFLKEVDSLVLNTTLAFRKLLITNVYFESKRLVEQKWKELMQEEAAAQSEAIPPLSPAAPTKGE

As for `Cc1cc(N)c2cc(NC(=O)/C=C/c3ccccc3Cl)ccc2n1`, the values for the IC50 in [1], in [2] and in experiment [3] were 7.51 µM (active), 3.5 µM (active) and 3 µM (active), respectively. In the experiment on INS1, the half-maximal activity concentration (AC50) (in general, the concentration giving half of the maximal activity seen) is 3.83 µM (active). The EC50 (commonly the concentration that produces a half-maximal response) in the experiment on BJ was 0.704 µM (inconclusive). In experiment [4], the CC50 (as a rule, the concentration that lowers cell viability or growth by half) is 5.35 µM (active).

On to `CC(=NNC(=N)N)c1cc(NC(=O)NCCCCCCNC(=O)Nc2cc(C(C)=NNC(=N)N)cc(C(C)=NNC(=N)N)c2)cc(C(C)=NNC(=N)N)c1`, for which the Ki – broadly, a measure of affinity in units of concentration, obtained from inhibition or displacement – is > 5.01 µM (inactive) in [5]; > 1.58 µM (inactive) in experiment [6]; > 2.51 µM (inactive) in experiment [7]; > 7.94 µM (inactive) in [8]; 0.316 µM (active) in [9]; 3.16 µM (active) in experiment [10]. Also, the Ki in [11] is > 6.31 µM (inactive); in [12], 0.501 µM (active); in [13], 0.631 µM (active); in experiment [14], 2 µM (active); in experiment [15], 0.501 µM (active); in experiment [16], 0.398 µM (active). Besides, the Ki is > 3.98 µM (inactive) in [17]; 0.398 µM (active) in [18]; 0.316 µM (active) in [19]; > 7.94 µM (inactive) in [20]; > 7.94 µM (inactive) in experiment [21]; 1 µM (active) in [22]. The Ki was 2 µM (active) in experiment [23]; 0.501 µM (active) in [24]; 0.631 µM (active) in [25]; 0.158 µM (active) in [26]; 2.51 µM (active) in experiment [27]; 2.51 µM (active) in experiment [28]. The Ki in experiment [29] is 6.31 µM (active); in experiment [30] it was > 3.98 µM (inactive); in experiment [31] it was 1.58 µM (active).

`CCC(C)NC(=O)c1c(N)n(CCCOC)c2nc3ccccc3nc12` (stereo unspecified): the EC50 in experiment [32] was 33.2 µM (active); in experiment [34], 34.1 µM (active). In [33], the IC50 was 15.1 µM (inactive).
